The source of these data is US9309276B2, “Synthetic lipid A derivative” (University of Georgia Research Foundation, Inc., priority 2007, dated 2016).

The assay has as its system RAW 264.7 γNO(−) cells. Briefly: Cytokine induction and ELISAs in mouse macrophages (RAW 264.7 γNO(−) cells). Format: cell-based. The note with it: for Cytokine top value of dose-response curve, pro Il-1β: cell lysates; for Cytokine top value of dose-response curve, pro Il-1β / TNF-α and IFN-β production, dose response (in words) / Cytokine top value of dose-response curve, IFN-β / Cytokine top value of dose-response curve, IL-6 / Cytokine top value of dose-response curve, IP-10 / Cytokine top value of dose-response curve, RANTES / Cytokine top value of dose-response curve, TNF-α: 5.5 h; for Cytokine top value of dose-response curve, pro Il-1β / Cytokine top value of dose-response curve, IFN-β / Cytokine top value of dose-response curve, IL-6 / Cytokine top value of dose-response curve, IP-10 / Cytokine top value of dose-response curve, RANTES / Cytokine top value of dose-response curve, TNF-α: best-fit value ± std. error; for TNF-α and IFN-β production, dose response (in words) / Cytokine top value of dose-response curve, IFN-β / Cytokine top value of dose-response curve, IL-6 / Cytokine top value of dose-response curve, IP-10 / Cytokine top value of dose-response curve, RANTES / Cytokine top value of dose-response curve, TNF-α / Cytokine top value of dose-response curve, IL-1β: supernatant; for TNF-α and IFN-β production, dose response (in words): wide range of concentrations; for Cytokine top value of dose-response curve, IL-1β: 24 h, best-fit value ± std. error (# plateau not reached for LPS); for secretion of cytokines (TNF-α, IL-6, IP-10, IFN-β and IL-1β): Example III, data not shown. The method, then:
Mouse macrophages (RAW 264.7 γNO(−) cells) were exposed over a wide range of concentrations to compounds 1-5 and E. coli 055:B5 LPS. After 5.5 hours, the supernatants were harvested and examined for mouse TNF-α and IFN-β using a commercial and in-house developed capture ELISA assay, respectively. Potencies (EC50, concentration producing 50% activity) and efficacies (maximal level of production) were determined by fitting the dose-response curves to a logistic equation using PRISM software. […] It has also been shown that removal of the KDO moieties by mild acidic treatment reduces cellular responses (Demchenko et al., J. Am. Chem. Soc. 2003, 125, 6103-6112).
Having established the EC50 values of TNF-α and IFN-β secretion by compounds 1-5 and E. coli 055:B5 LPS, attention was focused on IL-6, IP-10, RANTES, and IL-1β responses. Thus, the previously harvested supernatants were analyzed for these cytokines using capture ELISA assays (FIG. 4, Table 1). For IL-6, IP-10, and RANTES, a short incubation time of 5.5 hrs was sufficient for detection. To achieve significant IL-1β secretion, the incubation had to be extended to 24 hrs. […] IL-1β is expressed as a pro-protein (pro-IL-1β), which is cleaved by caspase-1 into its active form (IL-1β), which is then secreted. Indeed, analyzing IL-1β of the cell lysates by Western blotting confirmed that it was present as a pro-protein (data not shown). TNF-α is also produced as a pro-protein, which is proteolitically cleaved by tumor necrosis factor-α converting enzyme (TACE) (Skotnicki and Levin, Annu. Rep. Med. Chem. 2003, 38, 153-162; Duffy et al., Thromb. Haemost. 2003, 89, 622-631). […] Furthermore, for each of the synthetic compounds and LPS, EC50 values of secreted TNF-α and intracellular pro-IL-1β were very similar. However, EC50 values for secreted mature IL-1β were larger by as much as 100-fold.
RAW 264.7 γNO(−) cells were plated on the day of the exposure assay as 2×10^5 cells/well in 96-well tissue culture plates (Nunc). Cells were incubated with different stimuli for 5.5 and 24 hours in replicates of five. Culture supernatants were then collected, pooled, and stored frozen (−80° C.) until assayed for cytokine production. After removal of the supernatant, cells were lysed by adding PBS containing Tween 20 (0.01%) and BSA (1%) in the same volume as that of the supernatant and sonicating for 5 min. The cell lysates were pooled and stored frozen (−80° C.) until assayed for cytokine production.
All cytokine ELISAs were performed in 96-well MaxiSorp plates (Nunc). Cytokine DuoSet ELISA Development Kits (R&D Systems) were used for the cytokine quantification of mouse TNF-α, IL-6, IP-10, RANTES, and IL-1β according to the manufacturer's instructions. The absorbance was measured at 450 nm with wavelength correction set to 540 nm using a microplate reader (BMG Labtech). Concentrations of IFN-β in culture supernatants were determined as follows. ELISA MaxiSorp plates were coated with rabbit polyclonal antibody against mouse IFN-β (PBL Biomedical Laboratories). IFN-β in standards and samples was allowed to bind to the immobilized antibody. Rat anti-mouse IFN-β antibody (USBiological) was then added, producing an antibody-antigen-antibody “sandwich”. Next, horseradish peroxidase (HRP) conjugated goat anti-rat IgG (H+L) antibody (Pierce) and a chromogenic substrate for HRP 3,3′,5,5′-tetramethylbenzidine (TMB; Pierce) were added. After the reaction was stopped, the absorbance was measured at 450 nm with wavelength correction set to 540 nm. All cytokine values are presented as the means±SD of triplicate measurements, with each experiment being repeated three times.
Concentration-response data were analyzed using nonlinear least-squares curve fitting in Prism (GraphPad Software, Inc.). […] The Hillslope was set at 1 to be able to compare the EC50 values of the different inducers. […]

Turning to `CCCCCCCCCCCCCC(=O)OC(CCCCCCCCCCC)CC(=O)OC1C(NC(=O)CC(CCCCCCCCCCC)OC(=O)CCCCCCCCCCC)C(OCC2OC(OP(=O)(O)O)C(NC(=O)CC(O)CCCCCCCCCCC)C(OC(=O)CC(O)CCCCCCCCCCC)C2O)OC(CO)C1OP(=O)(O)O` [Lipid A 1, 6-O-{2-Deoxy-2-[(R)-3-dodecanoyloxy-tetradecanoylamino]-3-O—[(R)-3-tetradecanoyloxy-tetradecanoyl]-β-D-glucopyranosyl}-2-deoxy-3-O—[(R)-3-hydroxy-tetradecanoyl]-2-[(R)-3-hydroxy-tetradecanoylamino]-α-D-glucopyranose 1,4′-bisphosphate], the “Cytokine top value of dose-response curve, pro Il-1β” value (“Cytokine top value … pro Il-1β” for short) is listed as 565 ± 25 pg/mL; the “TNF-α and IFN-β production, dose response (in words)” value (shortened to “TNF-α and IFN-β production”) was “clear dose response curves”; the “Cytokine top value of dose-response curve, IFN-β” value (“Cytokine top value … IFN-β” below) worked out at 724 ± 25 pg/mL; the “Cytokine top value of dose-response curve, IL-6” value (from here on “Cytokine top value … IL-6”) is on record as 249 ± 29 pg/mL. The “Cytokine top value of dose-response curve, IP-10” value (from here on “Cytokine top value … IP-10”) stood at 6778 ± 214 pg/mL; the “Cytokine top value of dose-response curve, RANTES” value (shortened to “Cytokine top value … RANTES”) is listed as 5531 ± 214 pg/mL; the “Cytokine top value of dose-response curve, TNF-α” value (“Cytokine top value … TNF-α” for short) is 3924 ± 179 pg/mL; the “Cytokine top value of dose-response curve, IL-1β” value worked out at 92 ± 2 pg/mL.

On to `CCCCCCCCCCCCCCCC(=O)O[C@H](CCCCCCCCCCCC(C)C)CC(=O)N[C@H]1[C@H](OC[C@H]2O[C@H](OP(=O)(O)O)[C@H](NC(=O)C[C@H](O)CCCCCCCCCCCC(C)C)[C@@H](O)[C@@H]2O)O[C@H](CO)[C@@H](O)[C@@H]1ONC(=O)C[C@H](O)CCCCCCCCCC(C)C` [Compound 104, 6-O-{2-Deoxy-2-[(R)-3-hexadecanoyloxy-15-methyl-hexadecanoylamino]-3-O—[(R)-3-hydroxy-13-methyl-tetradecanoylamino]-β-D-glucopyranosyl}-2-deoxy-2-[(R)-3-hydroxy-15-methyl-hexadecanoylamino]-α-D-glucopyranose 1-phosphate], for which the “secretion of cytokines (TNF-α, IL-6, IP-10, IFN-β and IL-1β)” value is listed as “did not lead to secretion of cytokines”.

In the case of `CCCCCCCCCCCCCCCC(=O)OC(CCCCCCCCCCC)CC(=O)NC1C(OP(=O)(O)O)OC(COC2OC(CO)C(OP(=O)(O)O)C(OC(=O)CC(CCCCCCCCC)OC(=O)CCCCCCCCCCC)C2NC(=O)CC(CCCCCCCCCCC)OC(=O)CCCCCCCCCCC)C(O)C1OC(=O)CC(O)CCCCCCCCC` [Lipid A 4, 6-O-{2-Deoxy-3-O—[(R)-3-dodecanoyloxy-dodecanoyl]-2-[(R)-3-dodecanoyloxy-tetradecanoylamino]-β-D-glucopyranosyl}-2-deoxy-2-[(R)-3-hexadecanoyloxy-tetredecanoylamino]-3-O—[(R)-3-hydroxy-dodecanoyl]-α-D-glucopyranose 1,4′-bisphosphate], the “Cytokine top value … pro Il-1β” value came to 610 ± 35 pg/mL; the “TNF-α and IFN-β production” value is given as “clear dose response curves”; the “Cytokine top value … IFN-β” value was found to be 710 ± 44 pg/mL; the “Cytokine top value … IL-6” value is 233 ± 12 pg/mL. For the same compound, the “Cytokine top value … IP-10” value is reported as 7320 ± 415 pg/mL; the “Cytokine top value … RANTES” value stood at 5360 ± 263 pg/mL; the “Cytokine top value … TNF-α” value is 4178 ± 250 pg/mL; the “Cytokine top value of dose-response curve, IL-1β” value came out at 86 ± 4 pg/mL.

`CCCCCCCCCCCC(=O)OC(CCCCCCCCCCC)CC(=O)NC1C(OCC2OC(OP(=O)(O)O)C(NC(=O)CC(O)CCCCCCCCCCC)C(OC(=O)CC(O)CCCCCCCCC)C2O)OC(CO)C(OP(=O)(O)O)C1OC(=O)CC(CCCCCCCCC)OC(=O)CCCCCCCCCCC` [Lipid A 2, 6-O-{2-Deoxy-3-O—[(R)-3-dodecanoyloxy-dodecanoyl]-2-[(R)-3-dodecanoyloxy-tetradecanoylamino]-β-D-glucopyranosyl}-2-deoxy-3-O—[(R)-3-hydroxy-dodecanoyl]-2-[(R)-3-hydroxy-tetredecanoylamino]-α-D-glucopyranose 1,4′-bisphosphate]: the “Cytokine top value … pro Il-1β” value is 587 ± 87 pg/mL; the “TNF-α and IFN-β production” value was “clear dose response curves”; the “Cytokine top value … IFN-β” value is on record as 654 ± 37 pg/mL; the “Cytokine top value … IL-6” value is 299 ± 42 pg/mL. Besides, the “Cytokine top value … IP-10” value worked out at 7207 ± 277 pg/mL; the “Cytokine top value … RANTES” value is 6851 ± 216 pg/mL; the “Cytokine top value … TNF-α” value turned out to be 4223 ± 329 pg/mL; the “Cytokine top value of dose-response curve, IL-1β” value is on record as 82 ± 2 pg/mL.

As to `CCCCCCCCCCCCCCCC(=O)O[C@H](CCCCCCCCCCCC(C)C)CC(=O)N[C@H]1[C@H](OC[C@H]2O[C@H](OP(=O)(O)O)[C@H](NC(=O)C[C@H](O)CCCCCCCCCCCC(C)C)[C@@H](OC(=O)C[C@H](O)CCCCCCCCCCCCC)[C@@H]2O)O[C@H](CO)[C@@H](O)[C@@H]1O` [Compound 103, 6-O-{2-Deoxy-2-[(R)-3-hexadecanoyloxy-15-methyl-hexadecanoylamino]-β-D-glucopyranosyl}-3-O—[(R)-3-hydroxy-hexadecanoyl]-2-deoxy-2-[(R)-3-hydroxy-15-methyl-hexadecanoylamino]-α-D-glucopyranose 1-phosphate], the “secretion of cytokines (TNF-α, IL-6, IP-10, IFN-β and IL-1β)” value is listed as “did not lead to secretion of cytokines”.
